Test results taken from PubChem BioAssay AID651717 (Broad Institute, 2012).

System: mESC Bmi1-luciferase reporter, firefly/renilla ratio, 24 h
Assay: Bmi1-luciferase reporter activators in mESC, dose response, esBAF inhibitor project, mouse embryonic stem cells, cherry-pick (AID 651717);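 further: luciferase knocked into Bmi1 locus with EF-1a renilla as cell number control; rising ratio signals esBAF inhibition which derepresses Bmi1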

| Structure (SMILES) | AC40 |
| --- | --- |
| COC(=O)c1c(-c2ccc(SC)cc2)sc2ccccc12 | 14.3 µM |
| Cc1ccc(NC(=O)C2CCCN(c3ncccn3)C2)cc1C (centres undefined) | 4.21 µM |
| CC(C)(C)c1ccc(C(=O)c2cn[nH]c2-c2ccccc2O)cc1 | 7.24 µM |
| O=C(COC(=O)c1cc2ccccc2oc1=O)Nc1cccc(S(=O)(=O)N2CCCCCC2)c1 | 12.7 µM |
| CCC(=O)Nc1cccc(-c2nc3ccccc3o2)c1 | 15.7 µM |
| c1ccc2c(c1)Nc1cc3ccccc3cc1O2 | 4.66 µM |
| Cc1c(C(=O)NCc2cccnc2)sc2nc(-c3ccc(F)cc3)cn12 | 12.2 µM |
| COC(=O)c1ccc2c(C)c(C3(O)CCCCC3)[nH]c2c1 | 7.47 µM |
| COC(=O)c1ccc(NC(=O)c2cc3sccc3n2C)cc1 | 6.75 µM |
| COc1ccccc1C(=O)Nc1cccc2cccnc12 | 13.9 µM |
| CC(C)(C)NC(=O)Cn1nnc(-c2ccccc2Cl)n1 | 5.29 µM |
| Cc1ccc(NC(=O)c2cccc3ccccc23)cc1 | 13.9 µM |
| COc1ccc(Cl)c(-c2cc(C(=O)Nc3ccccc3)[nH]n2)c1 | 0.423 µM |
| Cc1ccc2nc(-c3cccc(S(=O)(=O)N4CCCC4)c3)cn2c1 | 23.2 µM |
| C/C(=N\OCc1ccc(C#N)cc1)c1ccc(S(=O)(=O)N(C)C)cc1 | 7.91 µM |
| O=C(Nc1cccc(Cl)c1Cl)c1ccc(-c2ccccc2)cc1 | 3.54 µM |
| O=C(NCC1CC1)Nc1ccc(Cl)cc1 | 15.5 µM |
| COCOCCn1cc(CN2CCS(=O)(=O)N(Cc3ccc(-c4ccc(Cl)nc4)cc3)C(CC(C)C)C2=O)nn1 (centres undefined) | 34.2 µM |
| CC(=O)c1ccc(OCc2cc(C(=O)N(C)Cc3ccccn3)no2)cc1 | 6.33 µM |
| Cc1cc(F)ccc1-c1cc(C(=O)NC2CCCCC2)[nH]n1 | 9.06 µM |
| COc1cccc(NC(=O)CN(C)C(=O)CNC(=O)c2sc3ccccc3c2Cl)c1 | 4.99 µM |
| COc1ccc2c(c1)nc(-c1cccc(Br)c1)c(=O)n2C(c1ccccn1)c1nc2ccccc2[nH]1 (centres undefined) | 2.94 µM |
| COc1cccc(CN(C)C(=O)c2ccc(COc3ccc(Cl)cc3)cc2)c1OC | 5.66 µM |
| COc1ccc(NC(=O)Cc2ccccc2)cc1 | 8.22 µM |

| Structure (SMILES) | AC40 |
| --- | --- |
| CO[C@@H]1CN(C)C(=O)c2cc(NC(=O)c3nc4ccccc4s3)ccc2OC[C@@H](C)N(Cc2cccnc2)C[C@H]1C | 19.8 µM |
| Fc1cccc(-c2ncc(-c3ccccc3)o2)c1 | 0.768 µM |
| COc1cccc(/C=N/n2c(N)nc3ccccc32)c1OC | 3.21 µM |
| COc1ccc(-c2cnc(C(O)c3ccccc3)[nH]2)cc1 (centres undefined) | 1.15 µM |
| Cc1ccc2c3c([nH]c2c1C)-c1nonc1CC3 | 4.53 µM |
| CCC(C)NC(=O)c1cc(-c2ccccc2O)on1 (centres undefined) | 11.1 µM |
| O=c1c2ccccc2oc2cc(-c3ccc4cc[nH]c4c3)ccc12 | 1.46 µM |
| O=C(Nc1ccc(F)c(Cl)c1)c1cc(C2CCCN(C(=O)C3CC3)C2)on1 (centres undefined) | < 0.26 µM |
| O=C(Nc1ccc(N2CCCC2)cc1)c1cccc(Cl)c1Cl | 28.2 µM |
| C(=NN=Cc1c[nH]c2ccccc12)c1c[nH]c2ccccc12 | 3.9 µM |
| O=C(NCCc1ccccc1)c1cccc(NC(=O)C2CCC2)c1 | 8.75 µM |
| NC(=O)c1ccccc1-c1nc(-c2ccccc2)no1 | 4.23 µM |
| COc1cccc(-c2nc(-c3ccc(NC(=O)c4cccs4)cc3)no2)c1 | 4.26 µM |
| NCCNC(=O)c1c(NC(=O)c2ccccc2)sc2c1CCCC2 | 34.4 µM |
| C=CCNc1oc(-c2ccc(OC)cc2)nc1C#N | 3.54 µM |
| CCC(=O)n1nc(-c2ccc(Cl)cc2)nc1SC | 3.71 µM |
| Cc1cc(-c2nnc(-c3cccc(C(F)(F)F)c3)o2)no1 | 6.58 µM |
| COc1ccc(-c2cc(C(=O)N3CCN(c4ccccc4)CC3)no2)cc1 | 5.94 µM |
| OC(c1ccccc1)c1nc(-c2ccc3c(c2)OCO3)cs1 (centres undefined) | 3.37 µM |
| CSc1cccc(NC(=O)N2CCc3ccc(NC(=O)c4ccccn4)cc3C2)c1 | 4.23 µM |
| O=C(CN1CCCCC1)Nc1nc(-c2ccccc2)cs1 | 11.5 µM |
| NC(=O)c1ccc(CSc2nc3ccccc3s2)cc1 | 4.64 µM |
| O=C(Nc1ccc2c(c1)COC2=O)c1ccc(Cl)c(Cl)c1 | 2.46 µM |
| CCCCCn1c(=O)c(C(=O)Nc2ccccc2Cl)c(O)c2ccccc21 | 5.14 µM |

| Structure (SMILES) | AC40 |
| --- | --- |
| COc1ccc2[nH]c(=O)c(CNc3cccc(C)c3)cc2c1 | 12.9 µM |
| Cc1ccc(C)c(OCc2cc(C(=O)N3CC[C@@H]4CCCC[C@H]4C3)no2)c1 | 7.9 µM |
| O=C(Cc1ccccn1)c1ccc(Cl)cc1 | 3.14 µM |
| COc1ccc2cc(C(=O)N(C)CC(=O)Nc3ccccc3Br)ccc2c1 | 5.86 µM |
| Oc1ccc(/C=N/Nc2nc(-c3cccnc3)nc3ccccc23)c(O)c1 | 11.2 µM |
| COc1ccc(Cc2c(-c3ccc(F)cc3)nc3ccc(Br)cn23)c(C)c1 | 3.51 µM |
| Cc1cccc(NC(=O)c2ccccn2)c1C | 3.69 µM |
| COc1ccc(CNc2nc3ccccc3s2)cc1OC | 3.7 µM |
| COc1ccc([C@@H](C)NC(=O)c2ccc3oc(C(C)C)nc3c2)cc1 | 9.81 µM |
| CN(C)S(=O)(=O)c1cccc(C(=O)Nc2ccc(Cl)cn2)c1 | 5.04 µM |
| CS(=O)(=O)N1CCN(c2nc3ccccc3s2)CC1 | 1.24 µM |
| FC(F)Oc1ccccc1/C=N/Nc1nc2ccccc2o1 | 3.81 µM |
| CCOC(=O)C1=C(CSc2nc(-c3ccccc3)ccc2C#N)OC(N)=C(C#N)C1c1ccccc1 (centres undefined) | 12.4 µM |
| CCC(=O)c1ccc(N2CCCC2)c(F)c1 | 6.47 µM |
| Cc1ccc(C)c(NC(=O)c2cc(-c3cc(C)c(C)cc3O)n[nH]2)c1 | 3.77 µM |
| O=C(Nc1cccc2ccccc12)OCc1ccccc1 | 3.96 µM |
| Cc1csc(-c2ccc3cc(Cl)cc(Cl)c3n2)n1 | 5.82 µM |
| COc1ccc(NC(=O)CCC(=O)Nc2ccc3nc(N4CCOCC4)cc(C)c3c2)c(OC)c1 | 6.04 µM |
| COc1ccc(N=Cc2c(O)[nH]c3ccccc23)cc1OC | 3.05 µM |
| Cc1cc2oc(=O)cc(CN(C)Cc3ccccc3F)c2cc1Cl | 4.33 µM |
| CN(C)c1cccc(-c2csc(N3CCC(C(N)=O)CC3)n2)c1 | 0.362 µM |
| O=C1NCCC/C1=N/Nc1cc(F)ccc1F | 2.6 µM |
| Nc1cc2c3ccccc3ccc2c2ccccc12 | 2.47 µM |
| Cc1ccc(-c2ccc(CCC(=O)O)n2-c2cccc(O)c2)cc1 | 10.1 µM |

| Structure (SMILES) | AC40 |
| --- | --- |
| COc1cc2ccccc2cc1C(=O)Nc1ccncc1 | 5.2 µM |
| COc1ccccc1Cc1c(-c2ccc(C)cc2)nc2ccc(Cl)cn12 | 1.18 µM |
| O=C(c1c(Cl)nc2sccn12)N(C(=O)c1c(Cl)nc2sccn12)c1ccc(Cl)cn1 | 0.693 µM |
| CO[C@H]1CN(C)C(=O)c2cc(NC(=O)NC(C)C)ccc2OC[C@@H](C)N(Cc2ccc(-c3ccccn3)cc2)C[C@@H]1C | 22.6 µM |
| COc1ccc(C2=Nc3ccccc3NC(=O)C2N(C(=O)c2cnc(C)cn2)c2ccc(N3CCOCC3)cc2)cc1 (centres undefined) | 21.8 µM |
| O=c1cc(-c2ccsc2)oc2ccc(-c3ccc4cc[nH]c4c3)cc12 | 9.01 µM |
| CNc1oc(-c2ccc(OCc3ccccc3)cc2)nc1C#N | 24.4 µM |
| COc1ccc(CCC(=O)N2CCc3ccccc32)cc1 | 5.22 µM |
| Cc1csc(SCCN2C(=O)c3ccccc3C2=O)n1 | 3.17 µM |
| COc1ccccc1C=Cc1ccnc2ccccc12 | 7.65 µM |
| CC(C)(O)c1cc2ccc(C#Cc3ccsc3)cc2c(=O)o1 | 3.42 µM |
| CN(C(=O)c1ccc2c(Cl)c3c(nc2c1)CCC3)c1ccccc1 | 6.63 µM |
| CNc1cncc(-c2cccc(OC)c2F)n1 | 1.24 µM |
| Cc1ccc(C)c(N2CCN(C(=O)CCc3nc(-c4cccc(Cl)c4)no3)CC2)c1 | 2.83 µM |
| c1ccc(C2Oc3ccccc3C3CC(c4cccs4)=NN32)cc1 (centres undefined) | 8.04 µM |
| COc1c(C(=O)NNC(=O)c2ccccc2)csc1Br | 0.646 µM |
| O=C(c1ccncc1)N(c1ccc(N2CCOCC2)cc1)C(c1ccccc1)c1nc2ccccc2[nH]1 (centres undefined) | 1.01 µM |
| COc1ccc2c(=O)c(-c3ccc(OC)c(OC)c3)coc2c1 | 2.69 µM |
| CN(C)c1ccc(CN(C(=O)c2cc3ccccc3oc2=O)C2CCS(=O)(=O)C2)cc1 (centres undefined) | 3.62 µM |
| O=C(NC1CCCCCCC1)c1cccc(Cl)c1 | 10.7 µM |
| COc1ccc2c(c1)CC/C(=C/c1ccccn1)C2=O | 1.86 µM |
| COc1ccc(C2=NN(C(=O)c3ccccc3C(=O)O)C(c3ccccc3O)C2)cc1 (centres undefined) | 6.57 µM |
| Cc1cc(C)c(N=Cc2c(O)c3ccccc3oc2=O)c(C)c1 | 7.95 µM |
| O=C(Nc1ccc2c(c1)OCO2)c1cnc(Cl)c(Cl)c1 | 1.74 µM |

| Structure (SMILES) | AC40 |
| --- | --- |
| COc1ccc2nc3sc(C(=O)NCCCN4CCc5ccccc5C4)cc3cc2c1 | 11.9 µM |
| Cn1c(-c2ncc(F)cc2F)cc2onc(-c3c(F)cccc3Cl)c2c1=O | 0.47 µM |
| CCc1c(C)sc(NC(=O)c2cccs2)c1C(N)=O | 2.66 µM |
| COC(=O)N1CCCC(c2cc(C(=O)Nc3ccccc3Cl)no2)C1 (centres undefined) | 3.3 µM |
| Cc1ccc(-n2nnc(-c3cccnc3)n2)cc1 | 0.926 µM |
| CC(=O)Nc1ccc(CNc2nc3cc(-c4ccc(F)cc4)sc3c(=O)n2C)cc1 | 1.69 µM |
| Cc1c(C(=O)N2CCCc3ccccc32)sc2nc(-c3ccccc3)cn12 | 12.5 µM |
| CC(=O)n1nc(-c2ccccc2)nc1NCc1ccc(N(C)C)cc1 | 3.41 µM |
| COc1cccc(NC(=O)c2ccccc2Br)c1 | 4.25 µM |
| Cn1ccc2c(-c3ccc(C(=O)O)cc3)cc3c(c21)C1CCC3C1 (centres undefined) | 4.09 µM |
| Cc1ccc(NC(=O)NC(=O)N(c2ccccc2)S(C)(=O)=O)cc1 | 7.14 µM |
| CN(C)c1ncnc2c1ncn2-c1ccccc1 | 9.34 µM |
| Oc1cccc(/C=N/N2CCCCC2)c1O | 3.47 µM |
| Cc1ccc(C)c(N2CCN(C(=O)CCc3nc(-c4cccc(C(F)(F)F)c4)no3)CC2)c1 | 7.5 µM |
| COc1cccc(NC(=O)C(=O)NCC2CCCN2S(=O)(=O)c2cccs2)c1 (centres undefined) | 1.25 µM |
| COc1ccccc1CNC(=O)C[C@H]1CC[C@@H]2[C@H](COC[C@H](O)CN2C(=O)Nc2ccc(Cl)cc2)O1 | 14.1 µM |
| CSCc1nc2sc(C(=O)Nc3nc(C)cs3)c(C)c2c(=O)[nH]1 | 4.19 µM |
| COc1ccc(S(=O)(=O)Nc2cc(C(=O)NC3CCCCCC3)ccc2N2CCOCC2)cc1 | 7.61 µM |
| C=CCN(C(=O)C1CC(=O)N(C2CCCC2)C1)c1nc(-c2ccc(S(C)(=O)=O)cc2)cs1 (centres undefined) | 34.4 µM |
| Cc1ccc2oc3ccccc3c(=O)c2c1 | 7.05 µM |
| O=C(Nc1ccccn1)c1ccc(Cl)c(S(=O)(=O)N2CCCC2)c1 | 14.6 µM |
| COc1cc(/C=C/c2nc3ccccc3c(=O)[nH]2)ccc1OC(F)F | 1.6 µM |
| CC(C)CN=c1cc(-c2ccccc2)oc2ccc(Cl)cc12 | 2.27 µM |
